Non-standard residues stand in square brackets, D forms with d. Residues, ends and D or L forms follow the SMILES beside them. MeBmt = C/C=C/C[C@@H](C)[C@@H](O)[C@H](NC)C(=O)O; NMeL = CN[C@@H](CC(C)C)C(=O)O; NMeV = CN[C@H](C(=O)O)C(C)C; dNMeA = CN[C@H](C)C(=O)O

One data set has as its system MT4 cells. The data set is described as follows: Cytotoxicity in MT4-cells (MTT).
Settings: not given
The protocol: To evaluate the anti-HIV potential in additional cell lines and particularly in a monocytic cell line (U937), cellular toxicity of the test compound to these cell lines is first assessed. Jurkat and U937 cell suspensions are adjusted to 1×10^5 cells/ml and incubated in the presence of various concentrations of test compound. After 48 hours the amounts of cells per ml are compared by staining with MTT. Cytoxicity in MT4 cells may be measured in the same way.
The significance of these numbers and the appropriate methods are discussed supra.
The compound `C/C=C/C[C@@H](C)[C@@H](O)[C@H]1C(=O)N[C@@H]([C@@H](C)OC)C(=O)N(C)[C@H](C)C(=O)N(C)[C@@H](CC(C)C)C(=O)N(C)[C@@H](C(C)C)C(=O)N(C)[C@@H](CC(C)C)C(=O)N[C@@H](C)C(=O)N[C@H](C)C(=O)N(C)[C@@H](CC(C)C)C(=O)N(C)[C@@H](CC(C)C)C(=O)N(C)[C@@H](C(C)C)C(=O)N1C` [Compound i), [MeOThr]^2-[(D)MeAla]^3-[MeVal]^5 -Ciclosporin] (cyclo(A[dA][NMeL][NMeL][NMeV][MeBmt]T(Me)[dNMeA][NMeL][NMeV][NMeL])) displayed a Cytotoxicity greater than 10 µg/mL.
The compound `C/C=C/C[C@@H](C)[C@@H](O)[C@H]1C(=O)N[C@@H](CCC)C(=O)N(C)CC(=O)N(C)[C@@H](CC(C)(C)O)C(=O)N[C@@H](C(C)C)C(=O)N(C)[C@@H](CC(C)C)C(=O)N[C@@H](C)C(=O)N[C@H](C)C(=O)N(C)[C@@H](CC(C)C)C(=O)N(C)[C@@H](CC(C)C)C(=O)N(C)[C@@H](C(C)C)C(=O)N1C` [Compound f), [Nva]^2-[γ-hydroxy-MeLeu]^4 -Ciclosporin] had a Cytotoxicity of 14.0 µg/mL.
Still for that read-out and setting: with `C/C=C/C[C@@H](C)[C@@H](O)[C@H]1C(=O)N[C@@H](CC)C(=O)N(C)CC(=O)N(C)[C@@H](CC(C)C)C(=O)N(C)[C@@H](C(C)C)C(=O)N(C)[C@@H](CC(C)C)C(=O)N[C@@H](C)C(=O)N[C@H](C)C(=O)N(C)[C@@H](CC(C)C)C(=O)N(C)[C@@H](CC(C)C)C(=O)N(C)[C@@H](C(C)C)C(=O)N1C` [Compound h), [MeVal]^5 -Ciclosporin] the figure was 4.4 µg/mL; with `C/C=C/C[C@@H](C)[C@@H](O)[C@H]1C(=O)N[C@@H](CC)C(=O)N(C)CC(=O)N(C)[C@@H](CC(C)C)C(=O)N[C@@H](C(C)C)C(=O)N(C)[C@@H](CC(C)C)C(=O)N[C@@H](C)C(=O)N[C@H](C)C(=O)N(C)[C@@H](CC(C)(C)O)C(=O)N(C)[C@@H](CC(C)C)C(=O)N(C)[C@@H](C(C)C)C(=O)N1C` [l), [γ-hydroxy-MeLeu]^9 -Ciclosporin], greater than 10 µg/mL.
As for `CC[C@@H]1NC(=O)[C@H]([C@H](O)[C@H](C)C/C=C/CO)N(C)C(=O)[C@H](C(C)C)N(C)C(=O)[C@H](CC(C)C)N(C)C(=O)[C@H](CC(C)C)N(C)C(=O)[C@@H](C)NC(=O)[C@H](C)NC(=O)[C@H](CC(C)C)N(C)C(=O)[C@H](C(C)C)NC(=O)[C@H](CC(C)C)N(C)C(=O)CN(C)C1=O` [Compound j), [8'-hydroxy-MeBmt]^1 -Ciclosporin], the Cytotoxicity was found to be 10.6 µg/mL.
The same measure, in the same setting: the figure for `C/C=C/C[C@@H](C)[C@@H](O)[C@H]1C(=O)N[C@@H](CC)C(=O)N(C)CC(=O)N(C)[C@@H](CC(C)C)C(=O)N[C@@H](C(C)C)C(=O)N(C)[C@@H](C)C(=O)N[C@@H](C)C(=O)N[C@H](C)C(=O)N(C)[C@@H](CC(C)C)C(=O)N(C)[C@@H](CC(C)C)C(=O)N(C)[C@@H](C(C)C)C(=O)N1C` [Compound k), [MeAla]^6 -Ciclosporin] is 5.2 µg/mL; for `C/C=C/C[C@@H](C)[C@@H](O)[C@H]1C(=O)N[C@@H](CC)C(=O)N(C)CC(=O)N(C)[C@@H](CC(C)(C)O)C(=O)N[C@@H](C(C)C)C(=O)N(C)[C@@H](CC(C)C)C(=O)N[C@@H](C)C(=O)N[C@H](C)C(=O)N(C)[C@@H](CC(C)C)C(=O)N(C)[C@@H](CC(C)C)C(=O)N(C)[C@@H](C(C)C)C(=O)N1C` [Compound e), [γ-hydroxy-MeLeu]^4 -Ciclosporin] it is 15.5 µg/mL; for `CCCC[C@@H](C)[C@@H](O)[C@H]1C(=O)N[C@@H](CC)C(=O)N(C)CC(=O)N(C)[C@@H](CC(C)(C)O)C(=O)N[C@@H](C(C)C)C(=O)N(C)[C@@H](CC(C)C)C(=O)N[C@@H](C)C(=O)N[C@H](C)C(=O)N(C)[C@@H](CC(C)C)C(=O)N(C)[C@@H](CC(C)C)C(=O)N(C)[C@@H](C(C)C)C(=O)N1C` [Compound a), [dihydro-MeBmt]^1-[γ-hydroxy-MeLeu]^4 -Ciclosporin] it is 16.3 µg/mL.

Staying with this data set, now noted: MT4-cells, MTT staining.
For the compound `C/C=C/C[C@@H](C)[C@@H](O)[C@H]1C(=O)N[C@@H](CC)C(=O)N(C)CC(=O)N(C)[C@@H](C(C)C)C(=O)N[C@@H](C(C)C)C(=O)N(C)[C@@H](CC(C)C)C(=O)N[C@@H](C)C(=O)N[C@H](C)C(=O)N(C)[C@@H](CC(C)C)C(=O)N(C)[C@@H](CC(C)C)C(=O)N(C)[C@@H](C(C)C)C(=O)N1C` [Compound b), [MeVal]^4 -Ciclosporin], the Cytotoxicity was determined as 5.4 µg/mL.
Regarding `C/C=C/C[C@@H](C)[C@@H](O)[C@H]1C(=O)N[C@@H](CC)C(=O)N(C)CC(=O)N(C)[C@@H]([C@@H](C)CC)C(=O)N[C@@H](C(C)C)C(=O)N(C)[C@@H](CC(C)C)C(=O)N[C@@H](C)C(=O)N[C@H](C)C(=O)N(C)[C@@H](CC(C)C)C(=O)N(C)[C@@H](CC(C)C)C(=O)N(C)[C@@H](C(C)C)C(=O)N1C` [Compound c), [MeIle]^4 -Ciclosporin], the Cytotoxicity was 4.5 µg/mL.
